Patent publication US20070134255A1 (priority 2003, published 2007)
Where two headings read alike, the source gives them in different places.

Assays:
[1] = system: hMPV; experiment: Ribavirin as a therapeutic (added post-infection): hMPV infected Vero cells counted by immune fluorescence; format: cell-based, Human Metapneumovirus; settings: for inhibition at 25 µg/mL: human metapneumovirus, Vero, read-out: inhibition of viral replication
Procedure: Percentage of cells infected with hMPV. Cells were infected with 30 TCID50 of hMPV and after 0, 2, 4, 8 and 16 hours, post-infection, 0, 5, 10, 25, 50 or 100 microgram of Ribavirin was added. Three days post-infection, cells were fixed and stained with a hMPV-specific polyclonal antibody, and the number of hMPV positive and negative cells were counted in 5 fields.
(§1) Vero cells (African green monkey kidney cells) were maintained and passaged in Iscove's Modified Dulbecco's Medium (IMDM) containing L-glutamine (2 mM), penicillin (100 U/ml), streptomycin (100 μg/ml) and 10% fetal calf serum (FCS) and incubated in a humidified atmosphere at 37° C. Virus infection medium contained bovine serum albumin (BSA; 0.3%) and trypsin (2.5×10^−4%) instead of FCS. Human Metapneumovirus stocks were prepared by inoculating Vero cells with hMPV, and harvesting 7-10 days post-infection, when there were visible cytopathic effects. The virus was stored at −70° C. and titrated by end point dilution on Vero cells.
Cells were seeded in 24 well plates as described above. The next day, cells were inoculated with 10 or 100 TCID50 of hMPV in the absence of Ribavirin. Two hours post-infection, the supernatant was aspirated and the cells were washed in phosphate-buffered saline (PBS) to remove virus inoculum. Fresh medium was added and the cells were incubated at 37° C. At different time points (2, 4, 8 and 16 hours) after infection, Ribavirin was added to the cells to reach concentrations of 0, 5, 25 or 50 μg/ml.
(§2) The plates were incubated at 37° C. for 1 or 3 days. Medium was refreshed every second day and Ribavirin was maintained in the medium at all times at the appropriate concentration. After the indicated incubation period, medium was removed, the cells were washed with PBS and cells were fixed with 80% acetone. Staining for immune fluorescence analysis was performed by incubating infected cells with guinea pig anti-hMPV serum in PBS for 1 hour, followed by a FITC-labeled rabbit anti-guinea pig polyclonal antibody preparation (DAKO) in PBS for 1 hour. Background staining was finally performed with eriochrome black before analysis under an immune fluorescence microscope. Infected cells were counted in 5 fields under high power magnification (320×). Results are presented as the total number of infected cells counted in these 5 fields

[2] = system: PIV type 3 (PIV3); settings: cited from earlier work
[3] = system: hMPV; experiment: Ribavirin as a prophylactic: hMPV infected Vero cells counted by immune fluorescence; format: cell-based, Human Metapneumovirus; settings: for reduction in number of infected cells: pre-incubation 2 h before infection, 100 TCID50 hMPV, day 1 post-infection, Vero cells
Procedure: as §1
One day prior to infection, the cells were seeded in 24 well plates at 30-40% confluency, and incubated overnight at 37° C. The next day, cells were pre-incubated with fresh medium containing 0, 5, 25 or 50 μg/ml of Ribavirin for 2 hours prior to virus infection. Following this pre-incubation, cells were infected with 10 or 100 TCID50 (tissue culture infectious doses) of hMPV, in the continuing presence of Ribavirin. After 2 hours, the virus inoculum was washed off and fresh medium containing Ribavirin was put onto the cells.
as §2

[4] = system: hMPV strain NL/01/00; experiment: Inhibition of hMPV by Ribavirin and neutralizing antibodies in Vero cells (immunofluorescence, estimated percentages of infected cells); format: cell-based, Human Metapneumovirus
Procedure: Passaging and seeding Vero cells (clone 118) was done in standard DMEM medium, supplemented with 10% FCS, L-glutamin and antibiotics (penicillin and streptomycin). Cells were seeded approximately 1:4 in 48 wells plates, so that cells would be ±75% confluent the next day. Infecting cells was done in IMDM medium with […], Pen/Strep and L-glutamin.
[…]. Plates were finally spun at 1500 g for 5 minutes and incubated at 37C in a humidified atmosphere for 3 days. After 3 days, from duplicate wells of each experimental condition the cells and supernatant were harvested and frozen at −70 C. Aliquots from these virus cultures were used for RNA isolation and subsequent quantification of viral genomic copy numbers by real-time RT-PCR on a TAQMAN® machine. The other duplicate wells from each experimental condition were stained for hMPV by immunofluorescence and numbers of infected cells were counted under a fluorescence microscope. Briefly, cells were washed with PBS and fixed with 80% acetone, washed again and subsequently incubated with a guinea pig anti-hMPV serum. After removal of the antiserum, cells were incubated with a FITC-labeled rabbit-anti-guinea pig polyclonal antibody preparation, washed and analyzed.
Note: Indicated results are estimated percentages of infected cells. Viral genomic copy numbers remain to be determined by taqman analyses (to be done this week)

Structure (SMILES): NC(=O)c1ncn([C@@H]2O[C@H](CO)[C@@H](O)[C@H]2O)n1 [Ribavirin]
- inhibition of viral replication ([1]; Ribavirin 25 μg/ml added after 16 hrs, read 3 days post-infection): insignificantly
- reduction of infection ([1]; Ribavirin 100 μg/ml added 8 hrs post-infection, read 3 days post-infection): 80%
- reduction of infection ([1]; Ribavirin 100 μg/ml added 16 hrs post-infection, read 3 days post-infection): 50%
- reduction of infection ([1]; Ribavirin 100 μg/ml added at 0, 2 or 4 hours post-infection, read 3 days post-infection): 95%
- percentage of MPV-positive cells ([1]; Ribavirin 25 microgram/ml or higher, added 0-16 hours after infection, 3 days post-infection): greatly reduced
- concentration of Ribavirin needed to see a significant effect ([1]; added 8 or 16 hrs post-infection): 100 µg/mL
- inhibition at 25 µg/mL ([1]; Ribavirin 25 μg/ml added 4 or 8 hrs post-infection, read 3 days post-infection): 10%
- inhibition at 25 µg/mL ([1]; Ribavirin 25 μg/ml added at 0 or 2 hrs post-infection, read 3 days post-infection): 50%
- improvement in outcome ([2]; Elizaga et al.: 18 of 24 PIV3 patients treated, starting three days after onset of symptoms): no improvement in outcome was observed
- viral shedding of treated and untreated patients ([2]; Nichols et al.: 31 of 55 patients with PIV3 pneumonia treated within 48 hours of diagnosis): similar
- reduction in number of infected cells ([3]; 25 μg/ml Ribavirin): approximately 50%
- decrease in the number of infected cells ([3]; 50 μg/ml Ribavirin added 2 hrs prior to or at the same time as virus infection): up to 95%
- reduction in number of infected cells ([3]; 50 μg/ml Ribavirin): approximately 95%
- effect on number of infected cells compared with day 1 ([3]; day 3 after infection, cells infected with 10 or 100 TCID50): same effect
- effect on the growth of hMPV in vero cells in vitro ([4]; FIG. 3, 50 or 250 TCID50): profound effect
- inhibition at 25 µg/mL ([4]; human metapneumovirus, Vero, 72 h, read-out: inhibition of viral proliferation): ~90%
